The text below walks through data of ChEMBL document CHEMBL4261657, “Discovery of Clinical Candidate 2-(4-(2-((1 H-Benzo[ d]imidazol-2-yl)thio)ethyl)piperazin-1-yl)- N-(6-methyl-2,4-bis(methylthio)pyridin-3-yl)acetamide Hydrochloride [K-604], an Aqueous-Soluble Acyl-CoA:Cholesterol O-Acyltransferase-1 Inhibitor” (J Med Chem, 2018).

Data set [1] can be described thus: Inhibition of ACAT in arterial homogenates isolated from 1% cholesterol fed New Zealand White rabbit assessed as reduction in cholesteryl oleate formation incubated for 5 mins in presence of [14C]-oleoyl-CoA and BSA complex by TLC method. Format: tissue-based, Oryctolagus cuniculus.
Data set [2] can be described thus: Inhibition of ACAT in New Zealand White rabbit intestinal microsomes assessed as reduction in cholesteryl oleate formation incubated for 3 mins in presence of [14C]-oleoyl-CoA and BSA complex by TLC method. More on the design: species or system Oryctolagus cuniculus, Intestine.
Data set [3] in a line: Aqueous solubility of the compound at pH 1.2. It is filed as physicochemical. As to conditions: aqueous solution.
A short description of data set [4]: Solubility of the compound in pH 1.0 solution. It is filed as physicochemical.
The species entered for data set [5] is Oryctolagus cuniculus. Kind of data set: Selectivity ratio of IC50 for ACAT in New Zealand White rabbit intestinal microsomes to IC50 for ACAT in arterial homogenates isolated from 1% cholesterol fed New Zealand White rabbit.

Each structure is given as a SMILES string. In brackets after ≈: the same amount, converted by molar mass.

For the compound `CC(C)c1cccc(C(C)C)c1NC(=O)CCCCCSc1nc2cccc(CN(C)C)c2o1`, the IC50 in data set [1] was 96 nM; in data set [2], 130 nM. The solubility in data set [3] is 400 µg/mL (≈ 830 µM).

For `CC(C)c1cc(C(C)C)c(NC(=O)CN2CCN(CCSc3nc4ccccc4s3)CC2)c(C(C)C)c1`, the IC50 in data set [1] is 130 nM; in data set [2], 310 nM.

For `CC(C)c1cccc(C(C)C)c1NC(=O)NCC1(Cc2ccc(N(C)C)cc2)CCCC1`, in data set [4], the concentration in solution (solubility) came to 2180 µg/mL (≈ 5000 µM).

Consider `CC(C)c1cc(C(C)C)c(NC(=O)CN2CCN(CCSc3nc4ccccc4[nH]3)CC2)c(C(C)C)c1`, for which the IC50 in data set [1] amounted to 230 nM; in data set [2] it was 410 nM.

Take `CC(C)c1cccc(C(C)C)c1NC(=O)/C=C/CCCSc1nc2ccccc2o1`: the values for the IC50 in data set [1] and in data set [2] were 36 nM and 180 nM, respectively. Further, in data set [5], the Ratio IC50 stood at 5.

For `CC(C)c1cccc(C(C)C)c1NC(=O)[C@H]1CC[C@H](CSc2nc3ccccc3o2)CC1`, the concentration for half-maximal inhibition (IC50) in data set [1] was 26 nM; in data set [2], 250 nM. The Ratio IC50 in data set [5] amounted to 9.6.

Take `CC(C)c1cccc(C(C)C)c1NC(=O)CN1CCN(CCSc2nc3ncccc3o2)CC1`: the IC50 in data set [2] stood at 320 nM.

With `CC(C)c1cccc(C(C)C)c1NC(=O)CN1CCCN(CCCSc2nc3ccccc3o2)CC1`, the IC50 in data set [1] worked out at 25 nM; in data set [2], 64 nM.

Turning to `CSc1cc(C)nc(SC)c1NC(=O)CN1CCN(CCSc2nc3ccccc3s2)CC1`, the IC50 in data set [1] worked out at 41 nM; in data set [2] it was 38 nM.

For `CC(C)c1cc(C(C)C)c(NC(=O)CN2CCN(CCSc3nc4ncccc4o3)CC2)c(C(C)C)c1`, the IC50 in data set [1] was 300 nM; in data set [2] it was 1300 nM.

As to `CC(C)c1cccc(C(C)C)c1NC(=O)CN1CCN(CCSc2nc3ccccc3s2)CC1`, the IC50 in data set [1] was determined as 16 nM; in data set [2], 36 nM.
